Values quoted from earlier work, collected in patent US5965160A, “Self-emulsifiable formulation producing an oil-in-water emulsion” (priority 1998, dated 1999).

Settings: sealed entero-coated hard gelatine capsule; Barnwell et al, 1992

CC(C)NCC(O)COc1cccc2ccccc12 (stereo not shown) [propranolol]
oral bioavailability (in words): can be improved by dissolving the drug in a lipid formulation containing mainly oleic acid
